Source: article PMC10525312, “Identification of a Novel Bioactive Peptide Derived from Frozen Chicken Breast Hydrolysate and the Utilization of Hydrolysates as Biopreservatives” (Biology, 2023)

Assays:
ACE = details: peptides after in vitro gastrointestinal digestion of chicken meat; read-out: ACE inhibitory activity IC50; cited from earlier work
Excerpt: The ACE inhibitory activity of C25 was more po ...

[1] = DPPH antioxidant activity assay (DPPH antioxidant assay kit); type: biochemical; details: 25 °C for 30 min in the dark, absorbance 450 nm
Method: The antioxidant activity of the chicken hydrolysate and C25 was assessed utilizing a DPPH antioxidant assay kit (Dojindo Laboratories) as described in the instructions provided by the manufacturer and as elaborated by Maky and Zendo [14]. Briefly, 20 µL of the investigated samples was applied to a microtiter plate and 80 µL of assay buffer, 100 µL of ethanol and 100 µL of DPPH working solution were mixed with the samples. Then, the plate was incubated at 25 °C for 30 min in the dark. The absorbance was measured by using a Sunrise microplate absorbance reader (Tecan) at 450 nm.

[2] = tested on: Enterococcus faecalis JCM 5803^T; experiment: MIC, broth microdilution assay, Enterococcus faecalis; type: cell-based; details: C25, MRS medium, OD 620 nm, twofold dilutions
Excerpt: (§1) The following indicator bacteria were used to determine the minimum inhibitory concentrations (MICs) as described by Wiegand et al. and Maky and Zendo [14] by using a broth microdilution assay. Weizmannia (Bacillus) coagulans JCM 2257^T, Salmonella enterica serovar Typhimurium NBRC 13243^T, Listeria innocua ATCC 33090^T, Proteus vulgaris F24B [24] and Escherichia coli JM109 were cultivated in Tryptic Soy Broth (BD, Sparks, MD, USA) supplemented with 0.6% yeast extract. Enterococcus faecalis JCM 5803^T was cultivated in MRS medium (Oxoid, Basingstoke, UK), while Pseudomonas putida ATCC 12633^T was cultivated in Luria Bertani medium (BD). Briefly, the bacterial inhibition was assessed at an optical density at 620 nm using an Infinite F200 Pro microplate reader (Tecan, Männedorf, Switzerland) after the indicator strains were cultured with twofold serial dilutions of chicken hydrolysates and C25.

[3] = tested on: Listeria innocua ATCC 33090^T; experiment: MIC, broth microdilution assay, Listeria innocua; type: cell-based; details: C25, Tryptic Soy Broth + 0.6% yeast extract, OD 620 nm, twofold dilutions
Excerpt: as §1

[4] = tested on: Weizmannia coagulans JCM 2257^T; experiment: MIC, broth microdilution assay, Weizmannia coagulans; type: cell-based, Weizmannia (Bacillus) coagulans; details: C25, Tryptic Soy Broth + 0.6% yeast extract, OD 620 nm, twofold dilutions
Excerpt: as §1

[5] = tested on: Pseudomonas putida ATCC 12633^T; experiment: MIC, broth microdilution assay, Pseudomonas putida; type: cell-based; details: C25, Luria Bertani medium, OD 620 nm, twofold dilutions
Excerpt: as §1

[6] = tested on: Salmonella enterica serovar Typhimurium NBRC 13245^T; experiment: MIC, broth microdilution assay, Salmonella Typhimurium; type: cell-based; details: C25, Tryptic Soy Broth + 0.6% yeast extract, OD 620 nm, twofold dilutions
Excerpt: as §1

[7] = commercial food antioxidants; cited from earlier work
Excerpt: Free radicals can be produced as a result of lipid oxidation, causing major health issues and having a negative impact on food quality. One of the solutions to prevent lipid oxidation is the use of protein hydrolysates.

Compound: ELFTT
- IC50 (ACE): 6.35 µM

Compound: H-IHAEEILDIRGNPTVEVDLHTAKGH-OH [C25]
- Antioxidant activity (in words) [1]: no activity was observed
- MIC (class symbol) [2]: NA ^2 (NA ^2 > 24 μg/mL)
- MIC (class symbol) [3]: NA ^2 (NA ^2 > 24 μg/mL)
- MIC (class symbol) [4]: NA ^2 (NA ^2 > 24 μg/mL)
- MIC (class symbol) [5]: NA ^2 (NA ^2 > 24 μg/mL)
- MIC (class symbol) [6]: NA ^2 (NA ^2 > 24 μg/mL)

Compound: KPLL
- IC50 (ACE): 12 µM

Compound: COc1ccc(O)c(C(C)(C)C)c1 [Butylated hydroxyanisole (BHA), Butylated hydroxyanisole]
- Antioxidant activity IC50 [7]: 112.05 µg/mL

Compound: Cc1cc(C(C)(C)C)c(O)c(C(C)(C)C)c1 [butylated hydroxytoluene (BHT), butylated hydroxytoluene]
- Antioxidant activity IC50 [7]: 202.35 µg/mL
